In the experiment the test system is P388 leukemia ip, CD2F1 mice, survival T/C. In words: NCI In Vivo Anticancer Drug Screen. Data for tumor model P388 Leukemia (intraperitoneal) in CD2F1 (CDF1) mice. The following applies: endpoint: median survival time, higher = longer survival. Summed up: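 Mice carrying the transplanted tumor received test compound or vehicle. Survival was recorded in each group, and the value is the treated-group measurement divided by that of the vehicle-treated control group.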

The mark [1] stands for this setting: dose: 12.5 mg/kg/injection, schedule: Q01DX009 (ip), vehicle: saline with Tween-80.
Setting [2] is: dose: 25.0 mg/kg/injection, schedule: Q01DX009 (ip), vehicle: saline with Tween-80.
Setting [3] is: dose: 50.0 mg/kg/injection, schedule: Q01DX009 (ip), vehicle: saline.
Setting [4] is: dose: 50.0 mg/kg/injection, schedule: Q01DX009 (ip), vehicle: suspension in saline.
The mark [5] stands for this setting: dose: 50.0 mg/kg/injection, schedule: Q01DX009 (ip), vehicle: saline with Tween-80.
Setting [6] is: dose: 50.0 mg/kg/injection, schedule: Q01DX009 (ip), vehicle: Klucel (hydroxypropylcellulose) (HPC).
Where [7] appears, read: dose: 100.0 mg/kg/injection, schedule: Q01DX009 (ip), vehicle: saline with Tween-80.
Setting [8] is: dose: 200.0 mg/kg/injection, schedule: Q01DX009 (ip), vehicle: saline with Tween-80.
The mark [9] stands for this setting: dose: 100.0 mg/kg/injection, schedule: Q01DX009 (ip), vehicle: Klucel (hydroxypropylcellulose) (HPC).
Setting [10] is: dose: 100.0 mg/kg/injection, schedule: Q01DX009 (ip), vehicle: saline.

Each structure is given as a SMILES string. Several values for one entry are separate records, joined by “and”; a condition that tells them apart may be missing. Equal entries are not always repeated. Inconclusive results and toxic doses are left out.

This note sets out measurements from PubChem BioAssay AID330 (DTP/NCI, 2004).

With `C[n+]1cccc(C(N)=O)c1`, the T/C is, setting by setting: (dose: 25.0 mg/kg/injection, schedule: Q01DX009 (ip), vehicle: water) 102 % of control; (dose: 50.0 mg/kg/injection, schedule: Q01DX009 (ip), vehicle: water) 112 % of control; (dose: 100.0 mg/kg/injection, schedule: Q01DX009 (ip), vehicle: water) 112 % of control; (dose: 200.0 mg/kg/injection, schedule: Q01DX009 (ip), vehicle: water) 110 % of control; (dose: 400.0 mg/kg/injection, schedule: Q01DX009 (ip), vehicle: water) 100 % of control.
Consider `O=[N+]([O-])c1ccc(N/N=C\C2OC3O[C@@H](C(Cl)(Cl)Cl)OC3C2O)c([N+](=O)[O-])c1` (stereo not given in full), for which the T/C (dose: 200.0 mg/kg/injection, schedule: Q04DX002 (ip), vehicle: saline with Tween-80) was 87 % of control.
For `O=C1CN(C2OC(CO)C(O)C2O)C(=O)NC1=O` (stereo not given), the T/C reads like this: (dose: 25.0 mg/kg/injection, schedule: Q01DX005 (ip), vehicle: saline) 112 % of control; (dose: 50.0 mg/kg/injection, schedule: Q01DX005 (ip), vehicle: saline) 113 % of control; (dose: 50.0 mg/kg/injection, schedule: Q01DX005 (ip), vehicle: suspension in saline) 100 % of control; (dose: 100.0 mg/kg/injection, schedule: Q01DX005 (ip), vehicle: saline) 99 % of control and 116 % of control; (dose: 100.0 mg/kg/injection, schedule: Q01DX005 (ip), vehicle: suspension in saline) 107 % of control; (dose: 200.0 mg/kg/injection, schedule: Q01DX005 (ip), vehicle: saline) 116 % of control. Moreover, the T/C reads like this: (dose: 200.0 mg/kg/injection, schedule: Q01DX005 (ip), vehicle: suspension in saline) 109 % of control; (dose: 400.0 mg/kg/injection, schedule: Q01DX005 (ip), vehicle: suspension in saline) 116 % of control.
With `CC(=O)N(O)c1ccc2c(c1)Cc1cc(F)ccc1-2`, the T/C (dose: 50.0 mg/kg/injection, schedule: Q01DX005 (ip), vehicle: saline with Tween-80) was 110 % of control and 121 % of control; the T/C (dose: 100.0 mg/kg/injection, schedule: Q01DX005 (ip), vehicle: saline with Tween-80) was 120 % of control; the T/C (dose: 200.0 mg/kg/injection, schedule: Q01DX005 (ip), vehicle: saline with Tween-80) was 123 % of control; the T/C (dose: 400.0 mg/kg/injection, schedule: Q01DX005 (ip), vehicle: saline with Tween-80) was 116 % of control.
On to `CCCC(=O)Nc1cc2c3c(c1)CCCN3CCC2`, for which the T/C runs as follows: under setting [1], 100 % of control; under setting [2], 95 % of control.
For the molecule `COc1cc(CC2c3cc(OC)c(OC)cc3CCN2C)c(Oc2cc3c(cc2OC)-c2c(OC)c(OC)c(OC)c4c2C(C3)N(C)CC4)cc1OC` (stereo not given), the T/C was 102 % of control (dose: 37.5 mg/kg/injection, schedule: Q01DX009 (ip), vehicle: Klucel (hydroxypropylcellulose) (HPC)); 88 % of control (dose: 75.0 mg/kg/injection, schedule: Q01DX009 (ip), vehicle: Klucel (hydroxypropylcellulose) (HPC)); 94 % of control (dose: 150.0 mg/kg/injection, schedule: Q01DX009 (ip), vehicle: Klucel (hydroxypropylcellulose) (HPC)).
On to `COc1cc(N(CCCl)CCCl)c(OC)cc1C=Nc1cccc(Br)c1`, for which the T/C was 113 % of control (dose: 6.25 mg/kg/injection, schedule: Q01DX009 (ip), vehicle: saline); 116 % of control (dose: 12.5 mg/kg/injection, schedule: Q01DX009 (ip), vehicle: suspension in saline); 167 % of control (dose: 25.0 mg/kg/injection, schedule: Q01DX009 (ip), vehicle: saline); 124 % of control (dose: 25.0 mg/kg/injection, schedule: Q01DX009 (ip), vehicle: suspension in saline); 254 % of control under setting [3]; 150 % of control under setting [4].
Turning to `COc1ccc(C2CC(=O)N(CN3CCN(c4ccccc4)CC3)C(=O)C2)cc1`, the T/C is 98 % of control under setting [1]; 93 % of control under setting [2]; 87 % of control and 92 % of control under setting [5].
As for `CCOc1c(N=Nc2ccccc2Cl)c(C)nn1C(N)=S`, the T/C reads like this: (dose: 3.75 mg/kg/injection, schedule: Q01DX005 (ip), vehicle: Klucel + Tween-80) 103 % of control; (dose: 7.5 mg/kg/injection, schedule: Q01DX005 (ip), vehicle: Klucel + Tween-80) 103 % of control; (dose: 15.0 mg/kg/injection, schedule: Q01DX005 (ip), vehicle: Klucel + Tween-80) 100 % of control and 110 % of control.
`Clc1nc(Cl)nc(Nc2ccccc2Cl)n1`: the T/C runs as follows: (dose: 6.25 mg/kg/injection, schedule: Q01DX009 (ip), vehicle: Klucel (hydroxypropylcellulose) (HPC)) 96 % of control; (dose: 12.5 mg/kg/injection, schedule: Q01DX009 (ip), vehicle: Klucel (hydroxypropylcellulose) (HPC)) 99 % of control; (dose: 25.0 mg/kg/injection, schedule: Q01DX009 (ip), vehicle: Klucel (hydroxypropylcellulose) (HPC)) 96 % of control; under setting [6], 99 % of control.
For `C[C@]12CCC(=O)C(O)=C1CC[C@@H]1[C@@H]2CC[C@@]2(C)[C@H]1CC[C@]2(C)O`, the T/C under setting [2] was 92 % of control; the T/C (dose: 25.0 mg/kg/injection, schedule: Q04DX003 (ip), vehicle: saline with Tween-80) is 100 % of control; the T/C under setting [5] was 100 % of control; the T/C (dose: 50.0 mg/kg/injection, schedule: Q04DX003 (ip), vehicle: saline with Tween-80) was 105 % of control; the T/C under setting [7] is 98 % of control; the T/C (dose: 100.0 mg/kg/injection, schedule: Q04DX003 (ip), vehicle: saline with Tween-80) is 101 % of control. The T/C under setting [8] was 101 % of control and the T/C (dose: 200.0 mg/kg/injection, schedule: Q04DX003 (ip), vehicle: saline with Tween-80) was 105 % of control.
As to `CCOP(=S)(OCC)Oc1ccccc1`, the T/C is, setting by setting: (dose: 100.0 mg/kg/injection, schedule: Q04DX002 (ip), vehicle: saline) 104 % of control; (dose: 200.0 mg/kg/injection, schedule: Q04DX002 (ip), vehicle: saline) 113 % of control; (dose: 400.0 mg/kg/injection, schedule: Q04DX002 (ip), vehicle: saline) 115 % of control.
Regarding `C=C(C)C(Br)=C(C)C`, the T/C is 108 % of control (dose: 12.5 mg/kg/injection, schedule: Q01DX001 (ip), vehicle: saline with Tween-80); 107 % of control (dose: 25.0 mg/kg/injection, schedule: Q01DX001 (ip), vehicle: saline with Tween-80); 99 % of control (dose: 50.0 mg/kg/injection, schedule: Q01DX001 (ip), vehicle: saline with Tween-80).
On to `COc1ccc(CSC(=S)Nc2ccc(C(F)(F)F)cc2)cc1`, for which the T/C was 110 % of control under setting [4]; 101 % of control (dose: 100.0 mg/kg/injection, schedule: Q01DX009 (ip), vehicle: suspension in saline); 105 % of control (dose: 200.0 mg/kg/injection, schedule: Q01DX009 (ip), vehicle: suspension in saline).
For `CC12CC(C(=O)O)C3(O)CC(C)(C1)CC(C)(C2)C3` (stereo not given) (tested in a mixture with another compound), the T/C reads like this: under setting [6], 109 % of control; under setting [9], 118 % of control.
Consider `CCOC(=O)c1[nH]c2ccc(OC)c3c2c1CCC3=O`, for which the T/C is 92 % of control under setting [5], 92 % of control under setting [7] and 92 % of control under setting [8].
`C=C1CC2C3CC=C4CC(OC(C)=O)CCC4(C)C3CCC2(C)C1=O` (stereo not given): the T/C reads like this: under setting [1], 94 % of control; under setting [2], 92 % of control; under setting [3], 104 % of control; under setting [10], 110 % of control.
With `Cc1ccc(C(C)C)c(OC(=O)Nc2ccc(Cl)cc2)c1`, the T/C under setting [6] was 100 % of control; the T/C under setting [9] was 87 % of control; the T/C (dose: 200.0 mg/kg/injection, schedule: Q01DX009 (ip), vehicle: Klucel (hydroxypropylcellulose) (HPC)) is 95 % of control; the T/C (dose: 400.0 mg/kg/injection, schedule: Q01DX009 (ip), vehicle: Klucel (hydroxypropylcellulose) (HPC)) is 92 % of control.
In the case of `O=C(CCSc1ncnc2nc[nH]c12)c1ccccc1`, the T/C under setting [3] is 94 % of control; the T/C under setting [10] is 92 % of control; the T/C (dose: 200.0 mg/kg/injection, schedule: Q01DX009 (ip), vehicle: saline) was 86 % of control.
Take `C[OH2+].[Cl][Cu+].[Cl][Cu+].[NH-]CCC([OH2+])CC[NH-]`: the T/C runs as follows: (dose: 1.56 mg/kg/injection, schedule: Q01DX005 (ip), vehicle: Klucel (hydroxypropylcellulose) (HPC)) 96 % of control; (dose: 3.12 mg/kg/injection, schedule: Q01DX005 (ip), vehicle: Klucel (hydroxypropylcellulose) (HPC)) 103 % of control; (dose: 6.25 mg/kg/injection, schedule: Q01DX005 (ip), vehicle: Klucel (hydroxypropylcellulose) (HPC)) 106 % of control and 91 % of control.
